Source: patent US6368788B1 (priority 1987, dated 2002)
Values joined by “and” are separate entries in the source; they are usually repeats but may differ in a detail not shown here. Identical values can stand only once. “Also recorded” adds a separate entry of the source. Like-named read-outs stand apart in the source and are kept apart here.

How the values were obtained:
Shigella dysenterae = experiment: Shigella dysentery; parameters: species or system human; details: in vivo
Excerpt: A total 125 patients infected with Shigella dysentery were examined. Fifty-three patients constituted the control group.

Plasmodium falciparum = experiment: Relapsing tropical malaria; type: in vivo, human; parameters: IgG / IgA / IgM: unit not given here
Corneal diseases = details: in vivo
cAMP and cGMP = experiment: Splenic lymphocyte cAMP and cGMP, normal, sensitized and anaphylactic animals; type: in vivo, guinea pigs; details: for cAMP / cAMP/cGMP / cGMP: splenic lymphocytes, 10 μg/kg
Experimental: Normal guinea pigs (10/group) were treated with 10 μg/kg L-Glu-L-Trp daily on each of five consecutive days and then spleens were removed, lymphocytes isolated, and cyclic AMP and GMP levels determined. To evaluate the effects of L-Glu-L-Trp on immune cells in the face of an ongoing anaphylactic response, splenic lymphocytes were isolated from guinea pigs sensitized for anaphylaxis, or following induction of anaphylactic shock.

Chronic osteomyelitis = experiment: Chronic osteomyelitis; parameters: species or system human; details: in vivo
Experimental: L-Glu-L-Trp was administered to 176 patients with chronic osteomyelitis of various etiology and bone localizations. The control group consisted of 88 patients receiving conventional treatment. L-Glu-L-Trp was administered im as a single daily dosage of 100 μg, or intranasally at a dose of 1 μg/kg daily, over a period of 10 days.

Sarcoma 180 tumor = experiment: Sarcoma 180 bilateral tumor size; type: in vivo, Swiss-Webster mice; details: for Mean Tumor Weight Left / Mean Tumor Weight Right: mean leg weight treated - normal control
Experimental: Anti-tumor activity of L-Glu-L-Trp was evaluated using the murine Sarcoma 180 tumor (ATCC CCL-8 CCRF S-180 II) injected at 2×10^6 cells/0.1 mL im into each rear flank of Swiss-Webster mice. Groups consisted of 10 animals. L-Glu-L-Trp was administered in a single 0.1 mL dose of either 10 μg/kg, 75 μg/kg, 250 μg/kg or 1000 μg/kg. Tumor size was evaluated by surgically removing and weighing the affected limbs, and comparing the weight with the weight of normal control (non-tumor) limbs. The first prophylactic drug regimen (PDR-1) consisted of 5 consecutive daily ip injections commencing on day -5 and ending of day -1. The second prophylactic drug regimen (PDR-2) consisted of 5 consecutive daily im injections to the left rear flank (tumor site) beginning on day -5 and ending on day -1. Sarcoma 180 cells were injected im on day 0. Saline 0.1 mL served as the negative control.

Mycobacterium leprae = type: in vivo, human
[1] = malaria, after L-Glu-L-Trp Therapy (n = 33)
[2] = sensitized + anaphylaxis (Group 5)
[3] = sensitized guinea pigs (Group 3)

L-Glu-L-Trp
Clinical outcome (Shigella dysenterae): normalization of fever, reduction of toxemia | Clinical outcome (Plasmodium falciparum; in vivo): decreased incidence of disease relapses | FDP and ATIII levels (Plasmodium falciparum; in vivo): the levels of FDP decreased and ATIII increased | PBL and T- and B-lymphocyte counts (Plasmodium falciparum; in vivo): increased PBL and T- and B-lymphocyte counts to normal or supra-normal values | ATIII (%) (Plasmodium falciparum; [1]): 98 ± 1.38% | B-Lymphocytes (Plasmodium falciparum; [1]): 0.53 ± 0.02 ×10^9/L | B-Lymphocytes % Normal Value (Plasmodium falciparum; [1]): (115%) | Clotting time (whole blood) (Plasmodium falciparum; [1]): 141 ± 2.4^ | FDP (Plasmodium falciparum; [1]): 23 ± 1.8 µg/mL | Fibrinogen Concentration (Plasmodium falciparum; [1]): 3.4 ± 0.1 g/L | Hagemann factor dependent fibrinolysis (Plasmodium falciparum; [1]): 25 ± 2.58 | IgA (Plasmodium falciparum; [1]): 138 ± 6.0 | IgA % Normal Value (Plasmodium falciparum; [1]): (140%) | IgG (Plasmodium falciparum; [1]): 187 ± 1.9 | IgG % Normal Value (Plasmodium falciparum; [1]): (140%) | IgM (Plasmodium falciparum; [1]): 193 ± 9.0 | IgM % Normal Value (Plasmodium falciparum; [1]): (152%) | Kaolin clotting time (Plasmodium falciparum; [1]): 58 ± 0.3 | Leukocytes (Plasmodium falciparum; [1]): 9.0 ± 0.14 ×10^9/L | Leukocytes % Normal Value (Plasmodium falciparum; [1]): (155%) | Lymphocytes (Plasmodium falciparum; [1]): 2.57 ± 0.09 ×10^9/L | Lymphocytes % Normal Value (Plasmodium falciparum; [1]): (148%) | PTT (Plasmodium falciparum; [1]): 23 ± 0.2 | T-Lymphocytes (Plasmodium falciparum; [1]): 0.94 ± 0.06 ×10^9/L | T-Lymphocytes % Normal Value (Plasmodium falciparum; [1]): (106%) | Thrombotest (Plasmodium falciparum; [1]): 33 ± 0.5 | Total Fibrinogen (Plasmodium falciparum; [1]): 200 ± 2.7^ | Clinical outcome (Corneal diseases): stimulates regeneration of corneal epithelium and restoration of visual acuity | cAMP and cGMP levels (cAMP and cGMP; sensitized and anaphylactic animals): significantly elevated the levels of cAMP and cGMP | cAMP (cAMP and cGMP; [2]): 210 ± 30 pmole/10^7 cells | cAMP/cGMP (cAMP and cGMP; [2]): 26 ± 3 | cGMP (cAMP and cGMP; [2]): 7.9 ± 0.5 pmole/10^7 cells | cAMP (cAMP and cGMP; [3]): 250 ± 30 pmole/10^7 cells | cAMP/cGMP (cAMP and cGMP; [3]): 22 ± 2 | cGMP (cAMP and cGMP; [3]): 11.2 ± 0.9 pmole/10^7 cells | Clinical outcome (Chronic osteomyelitis): pronounced positive effect on clinical course | Percent of Control Tumor Weight Left (Sarcoma 180 tumor; PDR-1 ip, 10 μg/kg): 120% | Mean Tumor Weight Left (Sarcoma 180 tumor; PDR-1 ip, 10 μg/kg): 3.0 | Mean Tumor Weight Right (Sarcoma 180 tumor; PDR-1 ip, 10 μg/kg): 2.9 | Percent of Control Tumor Weight Left (Sarcoma 180 tumor; PDR-1 ip, 75 μg/kg): 120% | Mean Tumor Weight Left (Sarcoma 180 tumor; PDR-1 ip, 75 μg/kg): 3.0 | Percent of Control Tumor Weight Right (Sarcoma 180 tumor; PDR-1 ip, 75 μg/kg): 130% | Mean Tumor Weight Right (Sarcoma 180 tumor; PDR-1 ip, 75 μg/kg): 3.0 | Percent of Control Tumor Weight Left (Sarcoma 180 tumor; PDR-1 ip, 250 μg/kg): 92% | Mean Tumor Weight Left (Sarcoma 180 tumor; PDR-1 ip, 250 μg/kg): 2.3 | Percent of Control Tumor Weight Right (Sarcoma 180 tumor; PDR-1 ip, 250 μg/kg): 83% | Mean Tumor Weight Right (Sarcoma 180 tumor; PDR-1 ip, 250 μg/kg): 1.9 | Percent of Control Tumor Weight Left (Sarcoma 180 tumor; PDR-1 ip, 1000 μg/kg): 52% | Mean Tumor Weight Left (Sarcoma 180 tumor; PDR-1 ip, 1000 μg/kg): 1.3 | Percent of Control Tumor Weight Right (Sarcoma 180 tumor; PDR-1 ip, 1000 μg/kg): 43% | Mean Tumor Weight Right (Sarcoma 180 tumor; PDR-1 ip, 1000 μg/kg): 1.0 | Percent of Control Tumor Weight Left (Sarcoma 180 tumor; PDR-2 im, 10 μg/kg): 96% | Mean Tumor Weight Left (Sarcoma 180 tumor; PDR-2 im, 10 μg/kg): 2.4 | Mean Tumor Weight Right (Sarcoma 180 tumor; PDR-2 im, 10 μg/kg): 2.6 | Percent of Control Tumor Weight Left (Sarcoma 180 tumor; PDR-2 im, 75 μg/kg): 96% | Mean Tumor Weight Left (Sarcoma 180 tumor; PDR-2 im, 75 μg/kg): 2.4 | Percent of Control Tumor Weight Right (Sarcoma 180 tumor; PDR-2 im, 75 μg/kg): 132% | Mean Tumor Weight Right (Sarcoma 180 tumor; PDR-2 im, 75 μg/kg): 3.3 | Percent of Control Tumor Weight Left (Sarcoma 180 tumor; PDR-2 im, 250 μg/kg): 72% | Mean Tumor Weight Left (Sarcoma 180 tumor; PDR-2 im, 250 μg/kg): 1.8 | Percent of Control Tumor Weight Right (Sarcoma 180 tumor; PDR-2 im, 250 μg/kg): 48% | Mean Tumor Weight Right (Sarcoma 180 tumor; PDR-2 im, 250 μg/kg): 1.1 | Percent of Control Tumor Weight Left (Sarcoma 180 tumor; PDR-2 im, 1000 μg/kg): 48% | Mean Tumor Weight Left (Sarcoma 180 tumor; PDR-2 im, 1000 μg/kg): 1.2 | Percent of Control Tumor Weight Right (Sarcoma 180 tumor; PDR-2 im, 1000 μg/kg): 57% | Mean Tumor Weight Right (Sarcoma 180 tumor; PDR-2 im, 1000 μg/kg): 1.3 | Tumor growth (Sarcoma 180 tumor; prophylactic ip or im, 250 μg/kg and 1000 μg/kg): inhibited subsequent im tumor growth | Mean % responsive PBL (blast cells), Con-A (Mycobacterium leprae; 5-7 days): 22.5 ± 4.0% | Mean % responsive PBL (blast cells), PHA (Mycobacterium leprae; 5-7 days): 28.7 ± 3.8% | Additional decrease in area of ulceration, primary NTU (Mycobacterium leprae; in vivo): 23.2% and 22% | Blast cells responsive to synthetic leprosy antigen (Mycobacterium leprae; in vivo): 2.86±0.9% | Clinical outcome (Mycobacterium leprae; in vivo): resolution of dermal leprotic lesions | Decrease in area of ulceration, primary NTU (Mycobacterium leprae; in vivo): 40% | Decrease in area of ulceration, recurrent ulcers (Mycobacterium leprae; in vivo): 22.6% | EI change versus Before (↓) (Mycobacterium leprae; in vivo): (↓33%) | Healing time, primary NTU (Mycobacterium leprae; in vivo): 3-6 weeks | Healing time, secondary recurrent NTU (Mycobacterium leprae; in vivo): 4-6 weeks | Increase of blast responsiveness of patient lymphocytes to Con-A (Mycobacterium leprae; in vivo): 1.6 fold | Increase of blast responsiveness of patient lymphocytes to PHA (Mycobacterium leprae; in vivo): 1.8 fold | Increase of lymphocytes responsive to synthetic leprosy antigen (Mycobacterium leprae; in vivo): about 1.6 fold | Lepromin skin test conversion (Mycobacterium leprae; in vivo): four subjects with negative skin tests for lepromin at the beginning of therapy turned positive | Mean % responsive PBL (blast cells), Con-A (Mycobacterium leprae; in vivo): 36.9 ± 1.28% | Mean % responsive PBL (blast cells), PHA (Mycobacterium leprae; in vivo): 22.3 ± 1.43% | OKT 4 (%) (Mycobacterium leprae; in vivo): 40.67 ± 1.44% and 43.25 ± 1.91% | OKT 4/OKT 8 (Mycobacterium leprae; in vivo): 1.61 ± 0.08 and 1.68 ± 0.32 | OKT 8 (%) (Mycobacterium leprae; in vivo): 25.56 ± 1.15% and 27.25 ± 3.42% | OKT 11 (%) (Mycobacterium leprae; in vivo): 72.22 ± 1.52% and 76.25 ± 0.87% | Rate of healing, primary NTU (Mycobacterium leprae; in vivo): 6.34 mm^2/day | Rate of healing, recurrent NTU (Mycobacterium leprae; in vivo): 5.91 mm^2/day | Romanovsky Staining (Mycobacterium leprae; in vivo): regenerative: lst or 2nd phase; also recorded: regenerative: 2nd or 3rd. phase,; also recorded: regenerative: 3rd. phase/healing;; also recorded: degenerative cells &
